Assay results as given in patent US20250276955A1, “CORONAVIRUS MAIN PROTEASE INHIBITORS AND METHODS USING SAME” (Baylor College of Medicine, priority 2021, published 2025).
Converted amounts (≈) assume the structure as drawn. “Also recorded” adds a separate entry of the source. Where two headings read alike, the source gives them in different places.

Legend:
HOVPro-Gi.1 = target: T1, HOVPro-Gi.1 (Norovirus, UniProt Q83883); test: Thermal shift, HOVPro-Gi.1; assay type: binding
T1 construct: HOVPro-Gi.1
T1 sequence (Q83883 1101-1281): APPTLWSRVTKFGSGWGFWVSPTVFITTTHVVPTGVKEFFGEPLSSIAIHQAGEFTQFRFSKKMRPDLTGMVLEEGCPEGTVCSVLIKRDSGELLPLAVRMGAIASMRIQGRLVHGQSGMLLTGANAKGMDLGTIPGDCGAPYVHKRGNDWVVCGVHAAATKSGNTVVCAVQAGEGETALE

human thrombin = target: T2, human thrombin (Homo sapiens, UniProt P00734); test: Thrombin fluorescence assay; assay type: biochemical
T2 construct: purchased Sigma-Aldrich MAK243

[1] = Apparent solubility in PBS buffer; details: for solubility: PBS buffer with 2% DMSO, aqueous buffer, kinetic from dmso stock
Human Cathepsin B = target: T3, Human Cathepsin B (Homo sapiens, UniProt P07858); test: Cathepsin B assay; assay type: biochemical
T3 construct: purchased BPS Bioscience 79590
Procedure: (§1) A kit from BPS Bioscience (#79590) was used with adjustments to the manufacturer's protocol as follows: The activated enzyme was diluted 250-fold just before use, and the reaction was run at RT in black 96 half-area plates in a total reaction volume of 50 uL containing 0.01% Tween-20. Instead of measuring endpoints at 60 min the increase in fluorescence (Ex 360 nm, Em 460 nm) per second (RFU/s) was obtained from linear progress curves over 10 min. Fractional activities were calculated from reactions with no inhibitors. E-64 was used as a positive control.

[2] = target: SARS-COV-2 M^pro (authentic N- and C-termini) (Severe acute respiratory syndrome coronavirus 2, UniProt P0DTD1); test: biochemical; assay type: biochemical
[3] = target: SARS-CoV-2 main protease (M^pro) (Severe acute respiratory syndrome coronavirus 2, UniProt P0DTD1); test: Protein thermal shift stability assay (SYPRO Orange); assay type: binding
HOVPro-Gii.4 = test: Thermal shift, HOVPro-Gii.4; assay type: binding
[4] = Metabolic stability in human liver microsomes; assay type: in vitro ADME; details: human, liver microsomes; for half-life at 2 μM: Table 4, read-out: HLM t1/2
Procedure: (§2) The samples were collected at specific time-points 0, 30, and 60 min in duplicate. The reactions were terminated by adding an equivalent volume of ice-cold methanol and vortexed. […] Three μL of the supernatant was analyzed by UHPLC-Q Exactive Orbitrap MS (Thermo Fisher Scientific, USA) equipped with 50 mm×4.6 mm column (XDB C-18, Agilent Technologies, USA). The column temperature was maintained at 40° C. The flow rate was at 0.3 mL/min with a 30% mobile phase (acetonitrile containing 0.1% formic acid). Q Exactive MS was operated in positive mode with electrospray ionization. Ultra-pure nitrogen was applied as the sheath (45 arbitrary unit), auxiliary (10 arbitrary unit), sweep (1.0 arbitrary unit) and the collision gas. […] MS data were acquired from 80 to 1,200 Da in profile mode.

[5] = 293T relative cell viability; details: human, 293T cells
[6] = Metabolic stability in mouse liver microsomes; assay type: in vitro ADME; details: mouse, liver microsomes; for half-life at 2 μM: Table 4, read-out: MLM t1/2
Procedure: as §2

SARS-COV-2 M^pro-His6 = SARS-COV-2 M^pro-His6 (Severe acute respiratory syndrome coronavirus 2, UniProt P0DTD1); test: biochemical; assay type: biochemical
renin = target: T4, renin (Homo sapiens, UniProt P00797); test: Renin assay; assay type: biochemical
T4 construct: purchased BPS Bioscience 80211
T4 sequence (P00797 67-406): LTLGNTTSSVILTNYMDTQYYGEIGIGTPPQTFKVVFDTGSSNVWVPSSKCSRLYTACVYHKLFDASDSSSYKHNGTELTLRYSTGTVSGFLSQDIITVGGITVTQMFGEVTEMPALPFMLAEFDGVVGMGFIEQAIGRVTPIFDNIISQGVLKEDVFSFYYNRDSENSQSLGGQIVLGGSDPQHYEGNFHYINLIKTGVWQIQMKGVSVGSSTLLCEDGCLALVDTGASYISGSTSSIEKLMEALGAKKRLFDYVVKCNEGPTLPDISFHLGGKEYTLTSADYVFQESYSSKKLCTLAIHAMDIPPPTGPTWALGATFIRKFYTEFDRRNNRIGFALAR
Procedure: as §1, with “(#80211)” for “(#79590)”, “The” for “The activated enzyme was diluted 250-fold just before use, and the”, “30” for “60”, “490” for “360”, “520” for “460”, “Aliskiren” for “E-64”

[7] = target: T5, matrix metallopeptidase 1 (MMP-1) (Homo sapiens, UniProt P03956); test: MMP-1 assay; assay type: biochemical
T5 construct: purchased Biovision K794-100
T5 sequence (P03956 100-469): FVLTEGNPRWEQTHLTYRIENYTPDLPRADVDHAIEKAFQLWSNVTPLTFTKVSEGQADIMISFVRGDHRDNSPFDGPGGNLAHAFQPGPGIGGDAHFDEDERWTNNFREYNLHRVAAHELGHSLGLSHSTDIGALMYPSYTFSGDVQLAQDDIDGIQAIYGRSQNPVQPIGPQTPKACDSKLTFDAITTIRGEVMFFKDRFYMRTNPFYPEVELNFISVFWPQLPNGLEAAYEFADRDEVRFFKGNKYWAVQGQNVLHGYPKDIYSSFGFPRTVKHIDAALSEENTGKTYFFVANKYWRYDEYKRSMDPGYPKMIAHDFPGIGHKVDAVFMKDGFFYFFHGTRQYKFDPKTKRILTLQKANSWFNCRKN
Procedure: A kit from Biovision (#K794-100) was used with adjustments to the manufacturer's protocol as follows: The enzyme was reconstituted according to protocol and then diluted 5-fold with assay buffer just before use. The unknown fluorogenic substrate was further diluted 10-fold with the provided assay buffer. The reaction was run at 37 C in black 96 half-area plates in a total reaction volume of 50 μL containing 0.01% Tween-20. The increase in fluorescence (Ex 490 nm, Em 520 nm) per second (RFU/s) was obtained from linear progress curves over 10 min. Fractional activities were calculated from reactions with no inhibitors. GM 6001 was used as a positive control.

Pharmacokinetics in mice = assay type: in vivo; details: 50 mg/kg intraperitoneal, plasma
Procedure: The whole blood samples were span at 2,000 rcf for 5 min for the separation of plasma. […] The concentration of these compounds in plasma were quantified using a calibration curve.

HepG2 cells = test: HepG2 cytotoxicity assay (XTT); details: Homo sapiens, HepG2, 24 h, read-out: HepG2 cell viability IC50

Row | Structure (SMILES) | ΔTm of HOVPro-Gi.1 at 50 μM compound conc. (HOVPro-Gi.1) [°C] | thrombin inhibition (in words) (human thrombin) | solubility [1] [µM] | Human Cathepsin B, Fractional Remaining Activity (Human Cathepsin B) | ΔTm of HOVPro-Gii.4 at 50 μM compound conc. (HOVPro-Gii.4) [°C] | microsomal CLint at 2 μM [4] [µL/min/mg] | half-life at 2 μM [4] [min] | cytotoxicity at 3 day, 10 μM [5] [%] | microsomal CLint at 2 μM [6] [µL/min/mg] | half-life at 2 μM [6] [min] | Thrombin inhibition (human thrombin; fluorescence assay) | ΔTm of Mpro at 50 μM compound conc. ([3]; 50 μM compound, […]) [°C] | renin inhibition (in words) (renin) | MMP-1 inhibition (in words) [7] | cathepsin B inhibition (in words) (Human Cathepsin B) | AUC0-t (Pharmacokinetics in mice) [µM·h] | CL/F (Pharmacokinetics in mice) | Tmax (Pharmacokinetics in mice) [min] | thrombin inhibition (in words) (human thrombin; fluorescence assay) | other results
1 | COc1cc(-c2cccc3[nH]ncc23)cc(C=O)c1OCC(=O)N1CCC(Oc2cccc(C(=O)N(C)C)c2)C1 (centres unmarked) [CDD-1714, 3-((1-(2-(2-formyl-4-(1H-indazol-4-yl)-6-methoxyphenoxy)acetyl)pyrrolidin-3-yl)oxy)-N,N-dimethylbenzamide] | −0.11 | No inhibition | 54.4 (≈ 29.5 µg/mL) | 0.92 | −0.41 | 132 | 10.5 | 21 | 130 | 10.7 | – | – | – | – | – | – | – | – | – | Thrombin inhibition (human thrombin): None; Ki ([2]; Morrison equation, read-out: apparent Ki against M^pro): 24.4 nM; stabilization of M^pro in thermal shift assay (in words) [3]: stabilized; also recorded: concentration-dependent stabilization; ΔTm of Mpro at 50 μM compound conc. [3]: 2.93 °C; Ki (SARS-COV-2 M^pro-His6; 25 nM enzyme, 15 μM fluorescent peptide, Morrison equation, Inactive = less than 50% inhibition at 25 μM compound, read-out: M^pro-His Ki): 20.2 ± 3 nM
2 | CCC[C@H](NC(=O)c1cccc2nc(-c3cncc4ccccc34)n([C@H]3C[C@H](C(=O)NC)C3)c12)c1ccc(OC(F)F)cc1 [CDD-1780] | −0.18 | – | 41.8 (≈ 25 µg/mL) | 0.95 | −1.23 | 76.1 | 18 | 6 | 39.5 | 35.1 | None | 9.19 | – | – | – | – | – | – | – | Ki ([2]; Table 3, column b (footnote not given), read-out: Kiapp (nM)^b): 15.7 ± 1.6 nM; Ki (SARS-COV-2 M^pro-His6; Table 3, column a (footnote not given), read-out: Kiapp (nM)^a): 13.7 ± 1.5 nM
3 | CNC(=O)CCCn1c(-c2cncc3ccccc23)nc2cccc(C(=O)N[C@@H](C)c3ccc4ccccc4c3)c21 [CDD-1845] | – | negative | – | – | – | – | – | – | – | – | – | – | negative | negative | negative | 14.87 ± 7.79 | 4.02 ± 1.98 mg/(hr · μmol/L)/kg | 19.8 ± 8.4 | – | AUC0-∞ (Pharmacokinetics in mice): 14.93 ± 7.85 µM·h; Cmax (Pharmacokinetics in mice): 8.93 ± 4.55 µM; MRT0-t (Pharmacokinetics in mice): 73.2 ± 1.8 min; MRT0-∞ (Pharmacokinetics in mice): 75 ± 1.2 min; T1/2 (Pharmacokinetics in mice): 68.4 ± 19.2 min
4 | CNC(=O)[C@H]1C[C@H](n2c(-c3cncc4ccccc34)nc3cccc(C(=O)NC(C)c4ccc5ccccc5c4)c32)C1 (some centres unmarked) [CDD-1819] | – | – | – | – | – | – | – | – | – | – | – | – | negative | negative | negative | – | 7.26 ± 1.81 mg/(hr · μmol/L)/kg | – | negative | IC50 (HepG2 cells): > 100000 nM; MRT last (Pharmacokinetics in mice; mouse, ip, read-out: MRT0-t): 78.6 ± 7.2 min; MRT inf (Pharmacokinetics in mice; mouse, ip, read-out: MRT0-∞): 85.2 ± 9.6 min; Tmax (Pharmacokinetics in mice; mouse, ip, read-out: Tmax): 19.8 ± 8.4 min
5 | CCCC(NC(=O)c1cccc2nc(-c3cncc4ccccc34)n([C@H]3C[C@H](C(=O)NC)C3)c12)c1ccc(C(F)(F)F)cc1 (some centres unmarked) [CDD-1733] | – | – | – | 0.91 | – | – | – | – | – | – | None | – | negative | negative | negative | 7.80 ± 3.22 | 7.73 ± 2.75 mg/(hr · μmol/L)/kg | 60 | No inhibition; also recorded: negative | ΔTm of HOVPro-Gi.1 at 50 μM compound conc. (HOVPro-Gi.1; 50 µM): −0.74 °C; Measured apparent solubility in PBS buffer (2% DMSO) ([1]; PBS buffer, 2% DMSO): 30.3 µM; ΔTm of Mpro at 50 μM compound conc. ([3]; 50 μM compound, […], 50 µM): 7.75 °C; ΔTm of HOVPro-Gii.4 at 50 μM compound conc. (HOVPro-Gii.4; 50 µM): −1.2 °C
6 | CNCc1cc(-c2cccc3[nH]ncc23)cc(OC)c1OCC(=O)N(C)C [CDD-1777] | – | – | 195 (≈ 71.7 µg/mL) | – | – | – | – | 4 | – | – | – | 1.00 | – | – | – | – | – | – | – | Ki,app [2]: Inactive; M^pro Ki [2]: Inactive; M^pro-His Ki (SARS-COV-2 M^pro-His6): Inactive
